Reference: PMC4728608, “A Cell-Penetrating Peptide with a Guanidinylethyl Amine Structure Directed to Gene Delivery” (Scientific Reports, 2016)
Where two headings read alike, the source gives them in different places. Values belong to the molecule of their own block, whether it stands above or below them.

Experiments:
[1] = cited from earlier work
Excerpt: The unnatural amino acid described herein was a lysine (Lys) derivative with a guanidinylethyl (GEt) group in the side chain amine [Lys(GEt)] (Fig. 1).

[2] = Potentiometric titration of model compounds; details: for protonation degree α at pH 5.5 / protonation degree α at pH 7.4: 100 mM amine and/or guanidine in 100 mM HCl titrated with 100 mM NaOH
Experimental: 1-Ethylamino-2-guanidinylethane hydrochloride, a model compound for Lys(GEt), was synthesized according to Supplementary Scheme S3 in order to clarify the protonation degree of the GEt amine structure within a range from pH 3 to pH 13. […] The monoprotonate state was a major form of the AEt amine structure at neutral pH. […] The GEt amine structure took the diprotonated form even at neutral pH, as expected.
N-Ethylethylenediamine hydrochloride (80.5 mg, 0.5 mmol) and 1-ethylamino-2-guanidinylethane hydrochloride (101.5 mg, 0.5 mmol) were separately dissolved in 100 mM HCl (10 mL) to obtain a solution with 100 mM amine and/or guanidine, and then titrated with 100 mM NaOH at 20 °C. Potentiometric titration was performed with a pH meter D-52 (Horiba, Kyoto, Japan). In this experiment, the titrant was added in quantities of 100 μL after the pH values were stabilized.

[3] = potentiometric titration, 20 °C
[4] = potentiometric titration, 100 mM in 100 mM HCl titrated with 100 mM NaOH, 20 °C

SMILES: NCCNCCN [diethylenetriamine]
pKa of protonated secondary amine [1]: 3.9

SMILES: NCCCC[C@H](N)C(=O)O [Lys, lysine]
pKa of protonated side chain (guanidine of Arg, primary amine of Lys) [1]: 10.2

pKa1 [2]: 8.8 | pKa2 [2]: 12.0 | protonation degree α at pH 5.5 [2, 3]: 0.99 | protonation degree α at pH 7.4 [2, 3]: 0.96
SMILES: CCNCCNC(=N)N.Cl [model compound for Lys(GEt), 1-Ethylamino-2-guanidinylethane hydrochloride]

SMILES: CCNCCN.Cl [N-Ethylethylenediamine hydrochloride]
protonation degree α at pH 5.5 [2, 3]: 0.97 | protonation degree α at pH 7.4 [2, 3]: 0.66 | pKa1 [2, 4]: 7.1 | pKa2 [2, 4]: 10.3
